“Also recorded” adds a separate entry of the source.

These results are taken from patent US12564568B2, “PKC pathway in Parkinson's Disease” (CEDARS-SINAI MEDICAL CENTER, priority 2018, dated 2026).

One series has as its system cleaved caspase 3 (CC3). Briefly: Cleaved caspase 3 in mDA cultures over PEP005 time-course (western blot). In kind it is cell-based, human. Particulars: PD/EOSPD cultures, PEP005 treatment. As to the method: Western blot: Cells were gently scraped off the plates, washed with PBS, centrifuged at 15000 RPM for 1 min, and dry pellets were frozen at −80° C. Samples were then thawed and lysed using 1×NETN buffer (20 mM Tris-HCl (pH 8.0), 100 mM NaCl, 0.5 mM EDTA and 0.5% NP-40) supplemented with phosphatase/protease inhibitor cocktail (MS-SAFE, Sigma-Aldrich). Lysates were sonicated in an automated cold bath sonicator for 20 mins using alternating 10 sec pulses followed by 10 sec rests. Samples were centrifuged for 20 min at 4° C. at 15000 RPM. Total soluble protein concentrations were measured using a Bradford assay (BIO-RAD). 4× Laemmli sample buffer (BIO-RAD 161-0774) was added to either 100 μg or 50 μg of total protein extracts and samples were boiled for 5 min. […] Membranes were blocked with Odyssey blocking buffer (LI-COR) and then incubated with primary antibodies for overnight at 4° C. or room temperature for 3 hours. Following incubation with dye-labeled secondary antibodies for 2 hours at room temperature, signals were visualized using an Odyssey Fc imaging system (LI-COR). […] Combined α-synuclein and p-PKCα expression plots were calculated by first normalizing bands to β-actin, then to the 02iCTR signal present in each blot. […] ROC plot and area under the curve was determined using R package ROCR to determine predicative probability percentages.
On the technique in general: Immunoblotting shows a protein as a band on a membrane.

For a further series, the system named is SNCA. Briefly: SNCA gene expression over PEP005 time-course (qPCR). In kind it is cell-based, human. Particulars: 4 hours after PEP005 treatment. As for the experimental part: qPCR: Total cellular RNA was isolated using TRIzol Reagent followed by Qiagen RNeasy Mini kit with DNase treatment. Total RNA (1 μg) was used for cDNA synthesis using the Quantitate Reverse Transcription Kit for cDNA synthesis for PCR (Qiagen). Real-time PCR was performed using the SYBR Green Supermix (BIO-RAD). The levels of expression of respective genes were normalized to corresponding GAPDH values and shown as fold change relative to the value of the control sample (ΔΔCt method)
For orientation: Quantitative PCR measures a nucleic acid by following its amplification.

Series [1] can be described thus: In vitro blood plasma binding, human. The format is in vitro ADME. The source says:
This may complicate IV delivery.

A short description of series [2]: IV bolus dose study, respiratory effects in rat. The format is in vivo. Particulars: doses up to 10 ug/kg. The source says:
In multiple IV bolus dose studies, the following was observed.

Series [3] in a line: Dose ranging study in rat. The format is in vivo. Particulars: rats, for 7 days. As for the experimental part:
For dose ranging studies in rat and mini-pig. Repeated doses up to 15 ug/kg/day for 7 days were tolerated in rats, 5 ug/kg in pigs

For the next series, the system named is PKC C1 domains. Particulars: cited from earlier work.

`C/C=C(/C)C(=O)O[C@H]1C(C)=C[C@]23C(=O)[C@@H](C=C(CO)[C@@H](O)[C@]12O)[C@H]1[C@@H](C[C@H]3C)C1(C)C` [PEP005, ingenol-3-angelate]: the “cleaved (active) caspase 3 (CC3)” value in the series on cleaved caspase 3 (CC3) and in the series on cleaved caspase 3 (CC3) (listed as PEP) was “marked decrease” throughout. Moreover, in the series on SNCA, the “SNCA expression (qPCR)” value is given as “downregulated”. The plasma binding entry in series [1] is recorded as “highly efficient plasma binding”. Also, in series [2], the respiratory effects entry is on record as “no biologically relevant responses”. For the same molecule, the tolerated repeated dose result in series [3] is reported as “up to 15 ug/kg/day”. Also, the “p-PKCα signal (western blot)” value in the series on p-PKCα (control and PD cultures / all iPSC lines, 1 μM PEP005 for 3 days) is listed as “completely ablate; also recorded: completely ablating; also recorded: clearly ablated”. Besides, the “p-PKCα expression, dose response” value with p-PKCα (dose response study, 172iPD mDA culture) is “clear dose-response relationship”. Further, the “p-PKCα levels at low PEP005 doses” value in the series with p-PKCα (dose response study, low doses) is “did not alter”. Also, the “time post dose at which pPKCα levels were still depressed” value in the series with p-PKCα (in vitro, single 24-hour dose) is reported as at least 240 hours. The “time until p-PKCα is degraded in response to drug treatment” value with p-PKCα (time-course, control and PD cultures) was at most 24 h. The “affinity for PKC C1 domains” value in the series on PKC C1 domains is “subnanomolar”.
